From patent US20050008896A1, “Luminous organic compound and manufacturing method” (Orient Chemical Ind., Ltd., priority 2003, published 2005) come the findings set out here.

Like-named read-outs stand apart in the source and are kept apart here.

For series [1] the following is noted: stood at room temperature overnight.
Method: A method of measurement of the solubility is as follows. After the prescribed amount of the compound was added to each solvent, it was heated by water bath and irradiated supersonic wave for 1 hour. It was stood at room temperature overnight, and filtrated. Obtained residue was dried. Amount of insoluble residue was weighed, and solubility (w/v %) was determined.
The nature of series [2]: Fluorescence (photoluminescence) intensity in ethanol, fluorescence spectrophotometer RF-5300PC. The series is classed as physicochemical. Particulars: for Fluorescence Intensity / center of Luminous Wave: 25 mg of compound in 100 ml of ethanol; for Relative Value of Fluorescence Intensity, Relative Value (2) (Related to Metal Complex Intermediate 3): metal complex intermediate 3 regarded as 1.00. Here is the method: Fluorescence intensity of each obtained compound was measured in order to evaluate fluorescence property.
A method of the evaluation is as follows. 25 mg of each compound was dissolved in 100 ml of ethanol respectively. The fluorescence intensity, photoluminescence intensity, was measured by a fluorescence spectrophotometer RF-5300PC that is available from Shimadzu Corporation. The measured results of the luminous organic compounds 1 to 9 and 11, the comparative compounds 1 to 3 and the metal complex intermediate 1 to 3 are indicated in Table 3. […] The relative value (2) of the fluorescence intensity indicates the value related to the fluorescence intensity of the metal complex intermediate 3 regarded as 1.00.

In the case of `C[N+](C)(C)CCCC[N+](C)(C)C.O=C(C=C([O-])C(F)(F)F)c1ccc2ccccc2c1.O=C(C=C([O-])C(F)(F)F)c1ccc2ccccc2c1.O=C(C=C([O-])C(F)(F)F)c1ccc2ccccc2c1.O=C(C=C([O-])C(F)(F)F)c1ccc2ccccc2c1.O=C(C=C([O-])C(F)(F)F)c1ccc2ccccc2c1.O=C(C=C([O-])C(F)(F)F)c1ccc2ccccc2c1.O=C(C=C([O-])C(F)(F)F)c1ccc2ccccc2c1.O=C(C=C([O-])C(F)(F)F)c1ccc2ccccc2c1.[Eu+3].[Eu+3]` [Luminous Organic Compound 2], in series [1], the “Solubility, Ethanol” value stood at 0.19 w/v %; the “Solubility, Ethyl Acetate” value is 1.54 w/v %; the “Solubility, Methyl Ethyl Ketone” value was “over 10.0 w/v %”; the “Solubility, Toluene” value is reported as 0.24 w/v %. Also, in series [1], the “Solubility, Xylene” value is listed as 0.10 w/v %. Also, in series [2], the “Relative Value of Fluorescence Intensity, Relative Value (1) (Related to Comparative Compound 3)” value stood at 1.48; the “Fluorescence Intensity” value is listed as 744; the “center of Luminous Wave” value was “(613 nm)”; the “Relative Value of Fluorescence Intensity, Relative Value (2) (Related to Metal Complex Intermediate 3)” value was 1.50.

As to `C[N+](C)(C)CCCCCC[N+](C)(C)C.O=C(C=C([O-])C(F)(F)F)c1ccc2ccccc2c1.O=C(C=C([O-])C(F)(F)F)c1ccc2ccccc2c1.O=C(C=C([O-])C(F)(F)F)c1ccc2ccccc2c1.O=C(C=C([O-])C(F)(F)F)c1ccc2ccccc2c1.O=C(C=C([O-])C(F)(F)F)c1ccc2ccccc2c1.O=C(C=C([O-])C(F)(F)F)c1ccc2ccccc2c1.O=C(C=C([O-])C(F)(F)F)c1ccc2ccccc2c1.O=C(C=C([O-])C(F)(F)F)c1ccc2ccccc2c1.[Eu+3].[Eu+3]` [Luminous Organic Compound 3], in series [1], the “Solubility, Ethanol” value came to 0.14 w/v %; the “Solubility, Ethyl Acetate” value is 9.01 w/v %; the “Solubility, Methyl Ethyl Ketone” value is “over 10.0 w/v %”; the “Solubility, Toluene” value is on record as 0.31 w/v %. The “Solubility, Xylene” value in series [1] was found to be 0.18 w/v %. Further, in series [2], the “Relative Value of Fluorescence Intensity, Relative Value (1) (Related to Comparative Compound 3)” value came to 1.63; the “Fluorescence Intensity” value was determined as 822; the “center of Luminous Wave” value was “(613 nm)”; the “Relative Value of Fluorescence Intensity, Relative Value (2) (Related to Metal Complex Intermediate 3)” value came out at 1.66.

With `C[N+](C)(C)c1ccc([N+](C)(C)C)cc1.O=C(C=C([O-])C(F)(F)F)c1ccc2ccccc2c1.O=C(C=C([O-])C(F)(F)F)c1ccc2ccccc2c1.O=C(C=C([O-])C(F)(F)F)c1ccc2ccccc2c1.O=C(C=C([O-])C(F)(F)F)c1ccc2ccccc2c1.O=C(C=C([O-])C(F)(F)F)c1ccc2ccccc2c1.O=C(C=C([O-])C(F)(F)F)c1ccc2ccccc2c1.O=C(C=C([O-])C(F)(F)F)c1ccc2ccccc2c1.O=C(C=C([O-])C(F)(F)F)c1ccc2ccccc2c1.[Eu+3].[Eu+3]` [Luminous Organic Compound 4], in series [1], the “Solubility, Ethanol” value is 0.08 w/v %; the “Solubility, Ethyl Acetate” value is listed as “over 10.0 w/v %”; the “Solubility, Methyl Ethyl Ketone” value was “over 10.0 w/v %”; the “Solubility, Toluene” value worked out at 0.23 w/v %. Besides, the “Solubility, Xylene” value in series [1] came to 0.22 w/v %. In series [2], the “Relative Value of Fluorescence Intensity, Relative Value (1) (Related to Comparative Compound 3)” value is given as 1.52; the “Fluorescence Intensity” value is given as 766; the “center of Luminous Wave” value is “(613 nm)”; the “Relative Value of Fluorescence Intensity, Relative Value (2) (Related to Metal Complex Intermediate 3)” value is 1.55.

In the case of `C[N+](C)(C)c1ccc(-c2ccc([N+](C)(C)C)cc2)cc1.O=C(C=C([O-])C(F)(F)F)c1ccc2ccccc2c1.O=C(C=C([O-])C(F)(F)F)c1ccc2ccccc2c1.O=C(C=C([O-])C(F)(F)F)c1ccc2ccccc2c1.O=C(C=C([O-])C(F)(F)F)c1ccc2ccccc2c1.O=C(C=C([O-])C(F)(F)F)c1ccc2ccccc2c1.O=C(C=C([O-])C(F)(F)F)c1ccc2ccccc2c1.O=C(C=C([O-])C(F)(F)F)c1ccc2ccccc2c1.O=C(C=C([O-])C(F)(F)F)c1ccc2ccccc2c1.[Eu+3].[Eu+3]` [Luminous Organic Compound 5], in series [1], the “Solubility, Ethanol” value is on record as 0.37 w/v %; the “Solubility, Ethyl Acetate” value is on record as 3.46 w/v %; the “Solubility, Methyl Ethyl Ketone” value is given as “over 10.0 w/v %”; the “Solubility, Toluene” value is 0.30 w/v %. Moreover, in series [1], the “Solubility, Xylene” value is recorded as 0.52 w/v %. Further, in series [2], the “Relative Value of Fluorescence Intensity, Relative Value (1) (Related to Comparative Compound 3)” value was determined as 1.28; the “Fluorescence Intensity” value was found to be 644; the “Relative Value of Fluorescence Intensity, Relative Value (2) (Related to Metal Complex Intermediate 3)” value was 1.30.

For the compound `CCCC[N+](C)(C)CCCC[N+](C)(C)CCCC.O=C(C=C([O-])C(F)(F)F)c1ccc2ccccc2c1.O=C(C=C([O-])C(F)(F)F)c1ccc2ccccc2c1.O=C(C=C([O-])C(F)(F)F)c1ccc2ccccc2c1.O=C(C=C([O-])C(F)(F)F)c1ccc2ccccc2c1.O=C(C=C([O-])C(F)(F)F)c1ccc2ccccc2c1.O=C(C=C([O-])C(F)(F)F)c1ccc2ccccc2c1.O=C(C=C([O-])C(F)(F)F)c1ccc2ccccc2c1.O=C(C=C([O-])C(F)(F)F)c1ccc2ccccc2c1.[Eu+3].[Eu+3]` [Luminous Organic Compound 6], in series [1], the “Solubility, Ethanol” value was found to be 0.14 w/v %; the “Solubility, Ethyl Acetate” value is “over 10.0 w/v %”; the “Solubility, Methyl Ethyl Ketone” value is on record as “over 10.0 w/v %”; the “Solubility, Toluene” value is listed as 3.86 w/v %. Moreover, in series [1], the “Solubility, Xylene” value was found to be 3.22 w/v %. In series [2], the “Relative Value of Fluorescence Intensity, Relative Value (1) (Related to Comparative Compound 3)” value is 1.51; the “Fluorescence Intensity” value is on record as 758; the “center of Luminous Wave” value is given as “(613 nm)”; the “Relative Value of Fluorescence Intensity, Relative Value (2) (Related to Metal Complex Intermediate 3)” value was 1.53.

Consider `C[N+](C)(C)c1ccc(C(c2ccc([N+](C)(C)C)cc2)c2ccc([N+](C)(C)C)cc2)cc1.O=C(C=C([O-])C(F)(F)F)c1ccc2ccccc2c1.O=C(C=C([O-])C(F)(F)F)c1ccc2ccccc2c1.O=C(C=C([O-])C(F)(F)F)c1ccc2ccccc2c1.O=C(C=C([O-])C(F)(F)F)c1ccc2ccccc2c1.O=C(C=C([O-])C(F)(F)F)c1ccc2ccccc2c1.O=C(C=C([O-])C(F)(F)F)c1ccc2ccccc2c1.O=C(C=C([O-])C(F)(F)F)c1ccc2ccccc2c1.O=C(C=C([O-])C(F)(F)F)c1ccc2ccccc2c1.O=C(C=C([O-])C(F)(F)F)c1ccc2ccccc2c1.O=C(C=C([O-])C(F)(F)F)c1ccc2ccccc2c1.O=C(C=C([O-])C(F)(F)F)c1ccc2ccccc2c1.O=C(C=C([O-])C(F)(F)F)c1ccc2ccccc2c1.[Eu+3].[Eu+3].[Eu+3]` [Luminous Organic Compound 7], for which, in series [1], the “Solubility, Ethanol” value is given as 0.16 w/v %; the “Solubility, Ethyl Acetate” value worked out at 10.0 w/v %; the “Solubility, Methyl Ethyl Ketone” value is “over 10.0 w/v %”; the “Solubility, Toluene” value is recorded as 0.14 w/v %. Also, the “Solubility, Xylene” value in series [1] is on record as 0.16 w/v %. For the same compound, in series [2], the “Fluorescence Intensity” value is listed as 835; the “center of Luminous Wave” value is recorded as “(613 nm)”; the “Relative Value of Fluorescence Intensity, Relative Value (2) (Related to Metal Complex Intermediate 3)” value is recorded as 1.69. Besides, the “Relative Value of Fluorescence Intensity, Relative Value (1) (Related to Comparative Compound 3)” value in series [2] (comparative compound 3 regarded as 1.00) amounted to 1.66.

Consider `C[N+](C)(C)CCCC[N+](C)(C)C.O=C(C=C([O-])C(F)(F)F)c1cccs1.O=C(C=C([O-])C(F)(F)F)c1cccs1.O=C(C=C([O-])C(F)(F)F)c1cccs1.O=C(C=C([O-])C(F)(F)F)c1cccs1.O=C(C=C([O-])C(F)(F)F)c1cccs1.O=C(C=C([O-])C(F)(F)F)c1cccs1.O=C(C=C([O-])C(F)(F)F)c1cccs1.O=C(C=C([O-])C(F)(F)F)c1cccs1.[Eu+3].[Eu+3]` [Luminous Organic Compound 8], for which, in series [1], the “Solubility, Ethanol” value turned out to be 0.15 w/v %; the “Solubility, Ethyl Acetate” value is listed as 0.88 w/v %; the “Solubility, Methyl Ethyl Ketone” value is given as “over 10.0 w/v %”; the “Solubility, Toluene” value is 0.18 w/v %. In series [1], the “Solubility, Xylene” value is on record as 0.10 w/v %. Also, in series [2], the “Relative Value of Fluorescence Intensity, Relative Value (1) (Related to Comparative Compound 3)” value is recorded as 1.02; the “Fluorescence Intensity” value is given as 510; the “center of Luminous Wave” value was “(613 nm)”; the “Relative Value of Fluorescence Intensity, Relative Value (2) (Related to Metal Complex Intermediate 3)” value was determined as 1.03.

With `C[N+](C)(C)CCCC[N+](C)(C)C.O=C(C=C([O-])C(F)(F)F)c1ccccc1.O=C(C=C([O-])C(F)(F)F)c1ccccc1.O=C(C=C([O-])C(F)(F)F)c1ccccc1.O=C(C=C([O-])C(F)(F)F)c1ccccc1.O=C(C=C([O-])C(F)(F)F)c1ccccc1.O=C(C=C([O-])C(F)(F)F)c1ccccc1.O=C(C=C([O-])C(F)(F)F)c1ccccc1.O=C(C=C([O-])C(F)(F)F)c1ccccc1.[Eu+3].[Eu+3]` [Luminous Organic Compound 9], in series [1], the “Solubility, Ethanol” value is listed as 0.11 w/v %; the “Solubility, Ethyl Acetate” value is given as 3.55 w/v %; the “Solubility, Methyl Ethyl Ketone” value is on record as “over 10.0 w/v %”; the “Solubility, Toluene” value worked out at 0.30 w/v %. Besides, the “Solubility, Xylene” value in series [1] came out at 0.12 w/v %. Besides, in series [2], the “Relative Value of Fluorescence Intensity, Relative Value (1) (Related to Comparative Compound 3)” value came out at 1.00; the “Fluorescence Intensity” value stood at 502; the “center of Luminous Wave” value is on record as “(612 nm)”; the “Relative Value of Fluorescence Intensity, Relative Value (2) (Related to Metal Complex Intermediate 3)” value was found to be 1.02.
